US10934297B2, “5-heteroaryl substituted indazole-3-carboxamides and preparation and use thereof” (Samumed, LLC, priority 2018, dated 2021)

Experiments:
[1] = tested on: IL-6; assay: IL-6 inhibition in LPS-stimulated human peripheral blood mononuclear cells (HTRF); format: cell-based; settings: Homo sapiens, PBMC; for EC50: huPBMCs, LPS 50 ng/mL, 22 hours, IL-6 HTRF; for inhibition at 10 µM: read-out: percent inhibition at 10 μM
Method: Fresh Normal PB MNC (Catalog #PB001, AllCells, Alameda, Calif.) were shipped overnight at 4° C. and resuspended in Roswell Park Memorial Institute (RPMI) 1640 Medium, with GlutaMAX Supplement (Catalog #61870127, ThermoFisher Scientific, Waltham, Mass.) supplemented with 1% Penicillin-Streptomycin (Catalog #15140163. ThermoFisher Scientific, Waltham, Mass.) and 1% fetal bovine serum (FBS) (Catalog #16140089, ThermoFisher Scientific, Waltham, Mass.) assay media. Fresh normal human peripheral blood mononuclear cells (huPBMCs) were resuspended in 1% FBS-RPMI assay media with 1% Penicillin-Streptomycin 1% to a cell concentration of 1×10e6 cells/mL. […] 50 ng/mL of Lipopolysaccharides from Escherichia coli 0111:B4 (Catalog #L5293-2ML, Sigma-Aldrich, St. Louis, Mo.) was added after 2 hours and cells were incubated for another 22 hours at 37° C.-5% CO2. After 22 hour incubation, a mixture of anti-IL6 XL665 and anti-IL-6 Cryptate diluted in reconstitution buffer (Catalog #62IL6PEC, Cisbio Inc., Bedford, Mass.) was added to each well. Following incubation for 3 hours at room temperature, Homogeneous Time-Resolved Fluorescence (HTRF) was measured using the Envision (Perkin Elmer, Shelton, Conn.) at 665 nm and […]. The ratio of fluorescence at 665 nm to 620 nm was used as a readout for IL-6 quantification. All samples were processed in duplicate. Readings were normalized to DMSO treated cells and normalized activities were utilized for EC50 calculations.

[2] = target: GSK3β kinase (Homo sapiens (Human), UniProt P49841); assay: GSK3β kinase assay (Ser/Thr 09 peptide Z-lyte FRET); format: biochemical; settings: read-out: EC50 (method: IC50)
Method: Representative compounds were screened using the assay procedure for GSK3β kinase activity as described below.
This is a non-radioactive assay using fluorescence resonance energy transfer (FRET) between coumarin and fluorescein to detect kinase activity which is represented as ratio of coumarin emission/fluorescein emission.
The mixture is allowed to incubate with the representative compounds for one hour at room temperature. All reactions were performed in duplicate. Unphosphorylated (“0% Control”) and phosphorylated (“100% control”) forms of Ser/Thr 18 serve as control reactions.
After incubation, diluted Development Buffer is added to the reaction and allowed to further incubate for one hour at room temperature.
Dose-response curves are generated and inhibitory concentration (IC50) values are calculated using non-linear regression curve fit in the Dotmatics' Studies Software (Bishops Stortford, UK).

[3] = target: DYRK1A kinase (Homo sapiens (Human), UniProt Q13627); assay: DYRK1A kinase assay (Ser/Thr 18 peptide Z-lyte FRET); format: biochemical; settings: read-out: EC50 (method: IC50)
Method: Representative compounds were screened using the assay procedure for DYRK1A kinase activity as described below.
This is a non-radioactive assay using fluorescence resonance energy transfer (FRET) between coumarin and fluorescein to detect kinase activity which is represented as a ratio of coumarin emission/fluorescein emission.
The mixture was allowed to incubate with the representative compounds for one hour at room temperature. All reactions were performed in duplicate. Unphosphorylated (“0% Control”) and phosphorylated (“100% control”) forms of Ser/Thr 18 served as control reactions. Additionally, an 11-point dose-response curve of Staurosporine (1 uM top) was run to serve as a positive compound control.
After incubation, Development Reagent A was diluted in Development Buffer then added to the reaction and allowed to further incubate for one hour at room temperature.

[4] = tested on: primary human fibroblasts derived from IPF patients (LL29 cells); assay: Inhibition of the fibrotic process: αSMA staining in TGF-β1 treated LL29 fibroblasts; format: cell-based; settings: Homo sapiens, Fibroblast, 96 h; LL29 cells, TGF-β1 20 ng/mL, 4 days, % αSMA positive cells
Method: Representative compounds were screened using primary human fibroblasts (derived from IPF patients) treated with TGF-β1 to determine their ability to inhibit the fibrotic process.
LL29 cells were plated at 1,500 cells/well in 70 μL/well F12 medium supplemented with 1% Fetal Bovine Serum. […] Wells treated with TGF-β1 and containing DMSO were used as positive control, and cells with only DMSO were negative control. […] Following incubation for 4 days, SYTOX green nucleic acid stain (Life Technologies [Thermo Fisher Scientific]) was added to the wells at a final concentration of 1 μM and incubated at room temperature for 30 min.

[5] = tested on: SW480 colon carcinoma cells; assay: Cell viability assay (CellTiter-Glo) in SW480 colon carcinoma cells; format: cell-based, human; settings: Homo sapiens, 96 h, four days
Method: Representative compounds were screened using the assay procedure to assess the effect on cell viability as described below.
SW480 colon carcinoma cells were transduced with a lentiviral vector expressing luciferase with a human Sp5 promoter consisting of a sequence of eight TCF/LEF binding sites. SW480 cells stably expressing the Sp5-Luc reporter gene and a hygromycin resistance gene were selected by treatment with 150 μg/mL of hygromycin for 7 days. These stably transduced SW480 cells were expanded in cell culture and used for all further screening activities.
For the Cell Viability Assays, the cells were plated at 2,000 cells/well in 384-well plates with a DMEM medium containing 1% fetal bovine serum, and 1% Penicillin-Streptomycin and incubated for […] at 37° C. and 5% CO2. Eight replicates of DMSO-treated cells served as controls and cells treated with compound were performed in duplicate.
After incubation, 10 μL of CellTiter-Glo (Promega) was added to each well allowed to incubate for approximately 12 minutes. This reagent “results in cell lysis and generation of a luminescent signal proportional to the amount of ATP present. The amount of ATP is directly proportional to the number of cells present in culture, in agreement with previous reports. The CellTiter-Glo® Assay generates a “glow-type” luminescent signal, produced by the luciferase reaction (Promega.com)”.

[6] = tested on: Wnt activity (Sp5-Luc reporter in SW480 cells); assay: Screening assay for Wnt activity: Sp5-Luc reporter gene assay in SW480 colon carcinoma cells; format: cell-based, human; settings: Homo sapiens, 36 to 48 hours
From the text: The screening assay for Wnt activity is described as follows. Reporter cell lines can be generated by stably transducing cancer cell lines (e.g., colon cancer) or primary cells (e.g., IEC-6 intestinal cells) with a lentiviral construct that includes a Wnt-responsive promoter driving expression of the firefly luciferase gene.
SW480 colon carcinoma cells were transduced with a lentiviral vector expressing luciferase with a human Sp5 promoter consisting of a sequence of eight TCF/LEF binding sites. SW480 cells stably expressing the Sp5-Luc reporter gene and a hygromycin resistance gene were selected by treatment with 150 μg/mL of hygromycin for 7 days. These stably transduced SW480 cells were expanded in cell culture and used for all further screening activities. […] For Sp5-Luc reporter gene assays, the cells were plated at 4,000 cells/well in 384-well plates with a DMEM medium containing 1% fetal bovine serum, and 1% Penicillin-Streptomycin and incubated for 36 to 48 hours at 37° C. and 5% CO2. Following incubation, 15 μl of BriteLite Plus luminescence reagent (Perkin Elmer) was added to each well of the 384-well assay plates. The plates were placed on an orbital shaker for 2 min and then luminescence was quantified using the Envision (Perkin Elmer) plate reader. Readings were normalized to DMSO only treated cells, and normalized activities were utilized for EC50 calculations using the dose-response log (inhibitor) vs. response-variable slope (four parameters) nonlinear regression feature available in GraphPad Prism 5.0 (or Dotmatics).

Chain of GSK3β kinase (P49841 whole entry): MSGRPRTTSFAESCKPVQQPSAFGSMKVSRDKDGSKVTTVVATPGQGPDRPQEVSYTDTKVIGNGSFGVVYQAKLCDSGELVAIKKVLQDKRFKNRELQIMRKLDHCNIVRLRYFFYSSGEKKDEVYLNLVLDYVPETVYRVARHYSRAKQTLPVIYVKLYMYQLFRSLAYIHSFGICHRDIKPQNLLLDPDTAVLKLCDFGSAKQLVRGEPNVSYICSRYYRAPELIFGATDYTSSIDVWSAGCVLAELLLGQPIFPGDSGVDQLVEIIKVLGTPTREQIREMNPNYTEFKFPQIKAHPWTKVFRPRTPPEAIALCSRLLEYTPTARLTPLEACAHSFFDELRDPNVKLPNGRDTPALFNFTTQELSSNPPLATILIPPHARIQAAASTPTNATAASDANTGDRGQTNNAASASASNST

| Structure (SMILES) | EC50 [1] [nM] | IC50 [2] [nM] | IC50 [3] [nM] | EC50 [4] [nM] | EC50 [5] [nM] | EC50 [6] [nM] | inhibition at 10 µM [1] [%] |
| --- | --- | --- | --- | --- | --- | --- | --- |
| O=C(Nc1ccc(F)cc1)c1n[nH]c2ccc(-c3cnn(C4CCNCC4)c3)cc12 [Compound 48, N-(4-Fluorophenyl)-5-(1-(piperidin-4-yl)-1H-pyrazol-4-yl)-1H-indazole-3-carboxamide] | 5420 | 260 | 23 | 449 | 354 | 239 | – |
| O=C(Nc1ccc(N2CCCC2)nc1)c1n[nH]c2ccc(-c3cnn(C4CCNCC4)c3)cc12 [Compound 93, 5-(1-(Piperidin-4-yl)-1H-pyrazol-4-yl)-N-(6-(pyrrolidin-1-yl)pyridin-3-yl)-1H-indazole-3-carboxamide] | > 10000 | 430 | 6 | 1200 | 823 | 1590 | 5.5 |
| Cn1cc(-c2cc3c(C(=O)NC4CCC(F)(F)CC4)n[nH]c3cc2F)cn1 [Compound 15, N-(4,4-Difluorocyclohexyl)-6-fluoro-5-(1-methyl-1H-pyrazol-4-yl)-1H-indazole-3-carboxamide] | 3550 | 58 | 36 | 3320 | 2600 | > 10000 | – |
| CCn1cc(-c2ccc3[nH]nc(C(=O)NC4CCC(F)(F)CC4)c3c2)cn1 [Compound 18, N-(4,4-Difluorocyclohexyl)-5-(1-ethyl-1H-pyrazol-4-yl)-1H-indazole-3-carboxamide] | 3820 | 60 | 121 | 950 | 7460 | 801 | – |
| O=C(N[C@@H]1CCCC[C@H]1F)c1n[nH]c2ccc(-c3cnn(C4CC4)c3)cc12 [Compound 12, 5-(1-Cyclopropyl-1H-pyrazol-4-yl)-N-((1R,2R)-2-fluorocyclohexyl)-1H-indazole-3-carboxamide] | 1160 | 38 | 171 | 621 | 2260 | 5470 | – |
| O=C(Nc1ccc(CN2CCCC2)cc1)c1n[nH]c2ccc(-c3cnn(C4CC4)c3)cc12 [Compound 72, 5-(1-Cyclopropyl-1H-pyrazol-4-yl)-N-(4-(pyrrolidin-1-ylmethyl)phenyl)-1H-indazole-3-carboxamide] | 1200 | 40 | 6 | 242 | 228 | 545 | – |
| Cn1cc(-c2ccc3[nH]nc(C(=O)Nc4ccc(CN5CCCC5)cc4O)c3c2)cn1 [Compound 74, N-(2-Hydroxy-4-(pyrrolidin-1-ylmethyl)phenyl)-5-(1-methyl-1H-pyrazol-4-yl)-1H-indazole-3-carboxamide] | > 10000 | 878 | 305 | 35 | > 10000 | 2170 | 22.1 |
| Cc1ncc(NC(=O)c2n[nH]c3ccc(-c4cnn(C5CCNCC5)c4)cc23)s1 [Compound 97, N-(2-Methylthiazol-5-yl)-5-(1-(piperidin-4-yl)-1H-pyrazol-4-yl)-1H-indazole-3-carboxamide] | 2280 | 98 | 2 | 291 | 354 | 269 | – |
| Cn1cc(-c2ccc3[nH]nc(C(=O)N[C@@H]4CCCC[C@H]4F)c3c2)cn1 [Compound 9, N-((1R,2R)-2-Fluorocyclohexyl)-5-(1-methyl-1H-pyrazol-4-yl)-1H-indazole-3-carboxamide] | 1090 | 6 | 18 | 324 | 1330 | 1980 | – |
| CC(C)n1cc(-c2ccc3[nH]nc(C(=O)Nc4ccc(CN5CCCC5)cc4)c3c2)cn1 [Compound 71, 5-(1-Isopropyl-1H-pyrazol-4-yl)-N-(4-(pyrrolidin-1-ylmethyl)phenyl)-1H-indazole-3-carboxamide] | 4800 | 169 | 25 | 322 | 1100 | 1490 | – |
